Reference: ChEMBL document CHEMBL1201862, “PubChem BioAssay data set” (2004)
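How tested: cells in 96-well plates exposed to compound for 48 hours at five concentrations. Here, GI50 denotes the concentration required for 50% inhibition of growth.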 Activity calls are given as the source filed them. No stated cut-off is given here; in the data, active = GI50 up to about 1.1 µM and inactive = higher.

What was measured:
Experiment in all cases: growth of human tumour cells (NCI), 48 h
RXF 393 = tested on: RXF 393
MCF7 = tested on: MCF7
K562 = tested on: K562
BT-549 = tested on: BT-549
MDA-N = tested on: MDA-N
SK-OV-3 = tested on: SK-OV-3
NCI-H460 = tested on: NCI-H460
SNB-19 = tested on: SNB-19
KM12 = tested on: KM12
RPMI-8226 = tested on: RPMI-8226
HCT-15 = tested on: HCT-15
SF-268 = tested on: SF-268
OVCAR-3 = tested on: OVCAR-3
UACC-257 = tested on: UACC-257
HT-29 = tested on: HT-29
CCRF-CEM = tested on: CCRF-CEM
NCI-H522 = tested on: NCI-H522
NCI-H23 = tested on: NCI-H23
SK-MEL-28 = tested on: SK-MEL-28
SNB-75 = tested on: SNB-75

SMILES	GI50 (RXF 393)	GI50 (MCF7)	GI50 (K562)	GI50 (BT-549)	GI50 (MDA-N)	GI50 (SK-OV-3)	GI50 (NCI-H460)	GI50 (SNB-19)	GI50 (KM12)	GI50 (RPMI-8226)	GI50 (HCT-15) [µM]	GI50 (SF-268)	GI50 (OVCAR-3)	GI50 (UACC-257)	GI50 (HT-29)	GI50 (CCRF-CEM)	GI50 (NCI-H522)	GI50 (NCI-H23)	GI50 (SK-MEL-28)	GI50 (SNB-75)
COc1cc(C2S/C(=C/c3ccccc3)C(=O)N2c2ccc(Cl)c(Cl)c2)cc(OC)c1OC (centres undefined)	> 51.8 µM (inactive)	22.3 µM (inactive)	15.2 µM (inactive)	42.3 µM (inactive)	19.8 µM (inactive)	> 91 µM (inactive)	30.7 µM (inactive)	59.2 µM (inactive)	18.1 µM (inactive)	46.3 µM (inactive)	18.7	11.7 µM (inactive)	> 57.1 µM (inactive)	> 70.6 µM (inactive)	55.5 µM (inactive)	1.36 µM (inactive)	14.1 µM (inactive)	48.9 µM (inactive)	17.1 µM (inactive)	–
O=C1C=Cc2c(I)sc(I)c21	20.6 µM (inactive)	18.4 µM (inactive)	14.3 µM (inactive)	17.6 µM (inactive)	24.9 µM (inactive)	89.7 µM (inactive)	> 100 µM (inactive)	–	20 µM (inactive)	–	17.3	12.4 µM (inactive)	19.3 µM (inactive)	20 µM (inactive)	23.9 µM (inactive)	2.88 µM (inactive)	1.99 µM (inactive)	18.9 µM (inactive)	19.8 µM (inactive)	30.1 µM (inactive)
CCOC(=O)CC1C(C(=O)OCC)=Cn2c([nH]c3cccc4cccc2c43)=C1C(=O)OCC (centres undefined)	> 100 µM (inactive)	> 100 µM (inactive)	> 100 µM (inactive)	> 100 µM (inactive)	> 100 µM (inactive)	> 100 µM (inactive)	> 100 µM (inactive)	> 100 µM (inactive)	> 100 µM (inactive)	> 100 µM (inactive)	> 100	–	> 100 µM (inactive)	> 100 µM (inactive)	> 100 µM (inactive)	> 100 µM (inactive)	–	> 100 µM (inactive)	> 100 µM (inactive)	> 100 µM (inactive)
CC(=O)OCCOCn1c2c(c(=S)[nH]c1=O)CCC2	> 100 µM (inactive)	> 100 µM (inactive)	> 100 µM (inactive)	> 100 µM (inactive)	> 100 µM (inactive)	–	–	> 100 µM (inactive)	> 100 µM (inactive)	> 100 µM (inactive)	> 100	> 100 µM (inactive)	> 100 µM (inactive)	> 100 µM (inactive)	> 100 µM (inactive)	> 100 µM (inactive)	> 100 µM (inactive)	> 100 µM (inactive)	> 100 µM (inactive)	> 100 µM (inactive)
O=c1sc2c(s1)SSSSS2	> 50 µM (inactive)	31.1 µM (inactive)	31.8 µM (inactive)	> 50 µM (inactive)	> 50 µM (inactive)	> 50 µM (inactive)	21.4 µM (inactive)	> 50 µM (inactive)	> 50 µM (inactive)	> 50 µM (inactive)	> 50	28.6 µM (inactive)	41.9 µM (inactive)	28.6 µM (inactive)	21.1 µM (inactive)	9.18 µM (inactive)	34.2 µM (inactive)	> 50 µM (inactive)	> 50 µM (inactive)	–
C=CCN1C(=O)C[C@H](Cc2ccccc2)NC(=O)C[C@H](Cc2ccccc2)N(CC=C)C(=O)C[C@H](Cc2ccccc2)NC(=O)C[C@@H]1Cc1ccccc1	7.14 µM (inactive)	4.04 µM (inactive)	3.45 µM (inactive)	95.5 µM (inactive)	8.91 µM (inactive)	34 µM (inactive)	5.42 µM (inactive)	> 100 µM (inactive)	26 µM (inactive)	2.76 µM (inactive)	12.2	6.12 µM (inactive)	87.7 µM (inactive)	6.97 µM (inactive)	5.19 µM (inactive)	4.76 µM (inactive)	–	> 100 µM (inactive)	61.9 µM (inactive)	3.92 µM (inactive)
COc1cc2c(cc1OC)C(=O)N(c1ccc(O)cc1)C2=O	> 100 µM (inactive)	< 0.01 µM (active)	> 100 µM (inactive)	> 100 µM (inactive)	> 100 µM (inactive)	> 100 µM (inactive)	> 100 µM (inactive)	> 100 µM (inactive)	–	> 100 µM (inactive)	> 100	> 100 µM (inactive)	> 100 µM (inactive)	> 100 µM (inactive)	> 100 µM (inactive)	> 100 µM (inactive)	> 100 µM (inactive)	> 100 µM (inactive)	> 100 µM (inactive)	–
CC1=NN(c2cccc(Cl)c2)C2(C1=C/C=C/c1ccccc1)C(Cl)C(=O)N2c1nc2ccccc2s1 (centres undefined)	23.1 µM (inactive)	9.14 µM (inactive)	6.14 µM (inactive)	32.1 µM (inactive)	26.8 µM (inactive)	29 µM (inactive)	5.42 µM (inactive)	60.8 µM (inactive)	23.8 µM (inactive)	4.43 µM (inactive)	29.6	7.74 µM (inactive)	24.7 µM (inactive)	36.7 µM (inactive)	25.7 µM (inactive)	8.05 µM (inactive)	14.8 µM (inactive)	16.9 µM (inactive)	26.2 µM (inactive)	–
CSCCC(NC(=O)C(Cc1c[nH]c2ccccc12)NC(=O)CCNC(=O)OC(C)(C)C)C(=O)NC(CC(=O)O)C(=O)NC(Cc1ccccc1)C(N)=O (centres undefined)	> 50 µM (inactive)	> 50 µM (inactive)	> 50 µM (inactive)	> 50 µM (inactive)	> 50 µM (inactive)	> 50 µM (inactive)	–	–	> 50 µM (inactive)	> 50 µM (inactive)	–	> 50 µM (inactive)	> 50 µM (inactive)	> 50 µM (inactive)	> 50 µM (inactive)	> 50 µM (inactive)	> 50 µM (inactive)	–	> 50 µM (inactive)	> 50 µM (inactive)
[N-]=[N+]=NC(c1cn(C2CC(O)C(CO)O2)c(=O)[nH]c1=O)C(Cl)I (centres undefined)	> 100 µM (inactive)	> 100 µM (inactive)	–	> 100 µM (inactive)	> 100 µM (inactive)	> 100 µM (inactive)	> 100 µM (inactive)	> 100 µM (inactive)	> 100 µM (inactive)	> 100 µM (inactive)	> 100	> 100 µM (inactive)	> 100 µM (inactive)	> 100 µM (inactive)	> 100 µM (inactive)	–	–	> 100 µM (inactive)	> 100 µM (inactive)	33.3 µM (inactive)
CC(C)(C)c1cc(C=C(C#N)C#N)cc(C(C)(C)C)c1O [TYRPHOSTIN A9]	2.55 µM (inactive)	0.391 µM (active)	0.305 µM (active)	0.316 µM (active)	0.608 µM (active)	–	0.171 µM (active)	0.392 µM (active)	0.395 µM (active)	–	0.366	0.344 µM (active)	0.258 µM (active)	0.281 µM (active)	0.375 µM (active)	0.33 µM (active)	0.126 µM (active)	0.809 µM (active)	3.2 µM (inactive)	0.857 µM (active)
CSC(SC)=C(C#N)C(=O)Nc1cccc(Cl)c1	> 100 µM (inactive)	34.8 µM (inactive)	32.4 µM (inactive)	36.6 µM (inactive)	58.5 µM (inactive)	65.8 µM (inactive)	59.8 µM (inactive)	> 100 µM (inactive)	> 100 µM (inactive)	–	38.4	> 100 µM (inactive)	–	> 100 µM (inactive)	46.7 µM (inactive)	33.1 µM (inactive)	17.5 µM (inactive)	–	64.7 µM (inactive)	> 100 µM (inactive)
NC(=S)N/N=C1\CCCCc2ccccc21	> 10 µM (inactive)	> 10 µM (inactive)	> 10 µM (inactive)	> 10 µM (inactive)	> 10 µM (inactive)	–	> 10 µM (inactive)	> 10 µM (inactive)	> 10 µM (inactive)	> 10 µM (inactive)	> 10	> 10 µM (inactive)	> 10 µM (inactive)	> 10 µM (inactive)	> 10 µM (inactive)	> 10 µM (inactive)	> 10 µM (inactive)	> 10 µM (inactive)	–	–
CCOC(=O)Cc1ccc(Nc2nc3ccccc3nc2C(=O)OCC)cc1	24 µM (inactive)	61.7 µM (inactive)	–	26.2 µM (inactive)	> 100 µM (inactive)	54.1 µM (inactive)	44.6 µM (inactive)	11.2 µM (inactive)	> 100 µM (inactive)	–	> 100	53.7 µM (inactive)	> 100 µM (inactive)	> 100 µM (inactive)	> 100 µM (inactive)	> 100 µM (inactive)	89.9 µM (inactive)	47.5 µM (inactive)	> 100 µM (inactive)	17.9 µM (inactive)
NNC(=O)c1nn[nH]c1C(=O)NN	> 100 µM (inactive)	> 100 µM (inactive)	> 100 µM (inactive)	13.6 µM (inactive)	> 100 µM (inactive)	–	> 100 µM (inactive)	> 100 µM (inactive)	> 100 µM (inactive)	> 100 µM (inactive)	> 100	> 100 µM (inactive)	> 100 µM (inactive)	> 100 µM (inactive)	13.5 µM (inactive)	> 100 µM (inactive)	–	> 100 µM (inactive)	–	–
Cc1nn2c(N)cc(=O)nc2nc1/C=C/c1ccc(N(C)C)cc1	98.6 µM (inactive)	3.92 µM (inactive)	9.08 µM (inactive)	> 32 µM (inactive)	5.82 µM (inactive)	> 100 µM (inactive)	6.89 µM (inactive)	29.9 µM (inactive)	> 28.8 µM (inactive)	10.1 µM (inactive)	–	> 100 µM (inactive)	–	17.3 µM (inactive)	4.76 µM (inactive)	< 0.01 µM (active)	1.66 µM (inactive)	10.4 µM (inactive)	> 84.5 µM (inactive)	–
